Reference: patent publication US11389385B2, “Resorcinol derivatives for their cosmetic use” (L'OREAL, priority 2017, dated 2022)
pIC50: −log10 of the molar value. Read-outs that look alike come from different tables or passages of the source.

Experiments:
[1] = system: normal human melanocytes; test: Depigmenting activity: reduction of melanin production in normal human melanocytes in vitro; type: cell-based; conditions: Melanocyte, 72 h, 72 hours incubation, maximum concentration tested 200 μM, read-out: IC50 (concentration at which a 50% decrease in melanin synthesis is achieved)
Description: The measurement of the depigmenting activity (reduction of melanin production) of compounds of formula (I) was performed by assaying normal human melanocytes in vitro as follows.
First, normal human melanocytes are cultured and distributed in a multiwell plate. After 24 hours, the culture medium was replaced with a medium containing the compounds of formula (I) to be evaluated. The cells were incubated 72 hours before measurement of the final optical density, which measures the amount of melanin produced by the melanocytes. A dose effect was performed using a wide concentration range of the compounds evaluated. Thus, by making the concentrations and the melanin measurements correspond, it was possible to determine an IC50 in μM: concentration at which a 50% decrease in melanin synthesis is achieved.
Various test campaigns were conducted and the test results are collated in the tables below.

[2] = system: coculture of keratinocytes and melanocytes; test: Coculture experiment: melanogenesis-modulating effect and cytotoxicity; type: cell-based; conditions: for pIC50: melanin optical density, read-out: IC50 (concentration for which 50% of the melanin synthesis is inhibited)
Description: The melanogenesis-modulating effect of compound D was measured according to the method described in patent FR-A-2734825, and also in the article by R. Schmidt, P. Krien and M. Régnier, Anal. Biochem., 235(2), 113-18, 1996. This test is performed on a coculture of keratinocytes and melanocytes.
For the test compounds, the following were determined: • the cytotoxicity, • the inhibitory activity on melanin synthesis, by estimating the melanin optical density.
The IC50 values (concentration for which 50% of the melanin synthesis is inhibited) were determined.
The test was also performed with the compound 5-[(E)-2-(4-hydroxyphenyl)ethenyl]benzene-1,3-diol described in the prior art patent application JP01038009,

[3] = values marked *: different campaigns each time
[4] = coculture of keratinocytes and melanocytes

Row | SMILES | pIC50 [1, 3] | pIC50 ([1]; melanin by optical density) | cytotoxicity [2, 4] | pIC50 [2, 4] | cytotoxicity [2]
1 | CC(Cc1ncc[nH]1)c1ccc(O)cc1O (stereo not shown) [Compound A, 4-[1-(1H-imidazol-2-yl)propan-2-yl]benzene-1,3-diol] | 5.43 | – | – | – | –
2 | CC(Cc1nccs1)c1ccc(O)cc1O (stereo not shown) [Compound B, 4-[1-(1,3-thiazol-2-yl)propan-2-yl]benzene-1,3-diol] | 5.97 | 5.23 | – | – | –
3 | Oc1ccc(/C=C/c2cc(O)cc(O)c2)cc1 [Compound of the prior art, 5-[(E)-2-(4-hydroxyphenyl)ethenyl]benzene-1,3-diol, reference compound] | – | 5.09 | Non-cytotoxic | 5.56 | –
4 | CC(Cc1nc2ccccc2[nH]1)c1ccc(O)cc1O (stereo not shown) [Compound D, 4-[1-(1H-benzimidazol-2-yl)propan-2-yl]benzene-1,3-diol] | 5.17 | 5.43 | – | 5.86 | non-cytotoxic
